Assay results from US20060223841A1 (priority 2003, published 2006).

How the values were obtained:
[1] = Stability under grinding by hand in mortar and pestle (XRD); settings: grinding by hand in mortar and pestle for one minute
[2] = Stability of ratio of the mixture of desloratadine polymorphic forms on storage (XRPD); assay type: physicochemical
Source text: Copper radiation of 1.5418 Å was used.
In all cases samples were packed in polyethylene and store above conditions.

[3] = Solubility of desloratadine; assay type: physicochemical
[4] = 25° C., 60% RH, 1 month (4 weeks)
[5] = 25° C., 60% RH, 2 months (8 weeks)
[6] = 25° C., 60% RH, 3 months (12 weeks)
[7] = 40° C., 75% RH, 1 month (4 weeks)
[8] = 40° C., 75% RH, 2 months (8 weeks)
[9] = 25° C., 60% RH, 6 months (24 weeks)
[10] = 40° C., 75% RH, 3 months (12 weeks)
[11] = 40° C., 75% RH, 6 months (24 weeks)

Compound | change in the XRD pattern after grinding [1] | Form 1 (%) ([2]; 25° C., 60% RH, 0 week) | Form 2 (%) ([2]; 25° C., 60% RH, 0 week) | Form 1 (%) [2, 4] [%] | Form 2 (%) [2, 4] [%] | Form 1 (%) ([2]; 25° C., 60% RH, 1 week) | Form 2 (%) ([2]; 25° C., 60% RH, 1 week) | Form 1 (%) [2, 5] [%] | Form 2 (%) [2, 5] [%] | Form 1 (%) ([2]; 25° C., 60% RH, 2 weeks) | Form 2 (%) ([2]; 25° C., 60% RH, 2 weeks) | Form 1 (%) [2, 6] [%] | Form 2 (%) [2, 6] [%] | Form 1 (%) ([2]; 40° C., 75% RH, 0 week) | Form 2 (%) ([2]; 40° C., 75% RH, 0 week) | Form 1 (%) [2, 7] [%] | Form 2 (%) [2, 7] [%] | Form 1 (%) ([2]; 40° C., 75% RH, 1 week) | Form 2 (%) ([2]; 40° C., 75% RH, 1 week) | Form 1 (%) [2, 8] [%] | also measured
Clc1ccc2c(c1)CCc1cccnc1C2=C1CCNCC1 [25:75, desloratadine] | do not show any substantial change | – | – | – | – | – | – | – | – | – | – | – | – | – | – | – | – | – | – | – | –
Clc1ccc2c(c1)CCc1cccnc1C2=C1CCNCC1 [50:50, desloratadine] | do not show any substantial change | – | – | – | – | – | – | – | – | – | – | – | – | – | – | – | – | – | – | – | –
Clc1ccc2c(c1)CCc1cccnc1C2=C1CCNCC1 [75:25, desloratadine] | do not show any substantial change | – | – | – | – | – | – | – | – | – | – | – | – | – | – | – | – | – | – | – | –
Clc1ccc2c(c1)CCc1cccnc1C2=C1CCNCC1 [84:16, desloratadine] | do not show any substantial change | – | – | – | – | – | – | – | – | – | – | – | – | – | – | – | – | – | – | – | –
Clc1ccc2c(c1)CCc1cccnc1C2=C1CCNCC1 [Example 1 of Stability Tests, desloratadine] | – | 57 | 43 | 55 | 45 | 59 | 41 | 63 | 37 | 53 | 47 | 52 | 48 | 57 | 43 | 50 | 50 | 46 | 54 | 39 | Form 2 (%) [2, 8]: 61%; Form 1 (%) ([2]; 40° C., 75% RH, 2 weeks): 43%; Form 2 (%) ([2]; 40° C., 75% RH, 2 weeks): 57%
Clc1ccc2c(c1)CCc1cccnc1C2=C1CCNCC1 [Example 2 of Stability Tests, desloratadine] | – | 62 | 38 | 66 | 34 | 65 | 35 | 67 | 33 | 61 | 39 | 66 | 34 | 62 | 38 | 65 | 35 | 63 | 37 | 65 | Form 2 (%) [2, 8]: 35%; Form 1 (%) ([2]; 40° C., 75% RH, 2 weeks): 64%; Form 2 (%) ([2]; 40° C., 75% RH, 2 weeks): 36%
Clc1ccc2c(c1)CCc1cccnc1C2=C1CCNCC1 [Example 3 of Stability Tests, desloratadine] | – | 74 | 26 | 79 | 21 | 79 | 21 | 75 | 25 | 74 | 26 | 74 | 26 | 74 | 26 | 78 | 22 | 77 | 23 | 78 | Form 1 (%) [2, 9]: 77%; Form 2 (%) [2, 9]: 23%; Form 2 (%) [2, 8]: 22%; Form 1 (%) ([2]; 40° C., 75% RH, 2 weeks): 81%; Form 2 (%) ([2]; 40° C., 75% RH, 2 weeks): 19%; Form 1 (%) [2, 10]: 75%; Form 2 (%) [2, 10]: 25%; Form 1 (%) [2, 11]: 75%; Form 2 (%) [2, 11]: 25%
Clc1ccc2c(c1)CCc1cccnc1C2=C1CCNCC1 [Example 4 of Stability Tests, desloratadine] | – | 76 | 24 | 82 | 18 | 87 | 13 | 86 | 14 | 80 | 20 | 81 | 19 | 76 | 24 | 88 | 12 | 76 | 24 | 85 | Form 1 (%) [2, 9]: 84%; Form 2 (%) [2, 9]: 16%; Form 2 (%) [2, 8]: 15%; Form 1 (%) ([2]; 40° C., 75% RH, 2 weeks): 82%; Form 2 (%) ([2]; 40° C., 75% RH, 2 weeks): 18%; Form 1 (%) [2, 10]: 82%; Form 2 (%) [2, 10]: 18%; Form 1 (%) [2, 11]: 82%; Form 2 (%) [2, 11]: 18%
Clc1ccc2c(c1)CCc1cccnc1C2=C1CCNCC1 [Form I, desloratadine, reference compound] | stable | – | – | – | – | – | – | – | – | – | – | – | – | – | – | – | – | – | – | – | –
Clc1ccc2c(c1)CCc1cccnc1C2=C1CCNCC1 [Form II, desloratadine, reference compound] | stable | – | – | – | – | – | – | – | – | – | – | – | – | – | – | – | – | – | – | – | –
Clc1ccc2c(c1)CCc1cccnc1C2=C1CCNCC1 [desloratadine, 8-chloro-6,11-dihydro-11-(4-piperidylidene)-5H-benzo[5,6] cyclohepta[1,2-b]pyridine] | – | – | – | – | – | – | – | – | – | – | – | – | – | – | – | – | – | – | – | – | solubility [3]: very low
